Measurements as given in patent US20240226057A1, “NEW USE OF MONENSIN” (MAST PHARMA AB, priority 2021, published 2024).
Entries after “also recorded” stand apart in the source; their conditions may differ. Where two headings read alike, the source gives them in different places.

What was measured:
[1] = system: Bone marrow-derived mast cells (BMMCs); test: BMMC viability, screening and kinetic analysis (Presto Blue / resazurin reduction)
[2] = system: human fibroblast cells (HFL-1); test: Cytotoxicity against human fibroblast cells (PrestoBlue)
[3] = system: Bone marrow-derived mast cells (BMMCs); test: Trypan blue positivity of treated mast cells; format: cell-based, mouse
Caspase 3 & 7 = Caspase 3 & 7 activation in mast cells
BMMCs [4] = test: Granule acidity, LysoSensor Blue DND-167 staining of BMMCs; format: cell-based, mouse; conditions: 0-10 μM for 30 min
Procedure: (§1) To assess cell death, cells were stained with Annexin V and either DRAQ7™ or Via-Probe™ Red Nucleic Acid Stain and analyzed by flow cytometry. To probe pH in acidic organelles, cells were incubated with LysoSensor Blue DND-167, followed by flow cytometry. The relative intracellular pH changes were assessed using the cell-permeable pH-sensitive fluorescent indicator (BCFL-AM). Intracellular calcium changes were assessed using Fluo-4/AM.
(§2) BMMCs were treated with 1 μM monensin for 12 and 24 h, followed by Annexin V/DRAQ7 staining to measure cell death. MCs were gated into cells having high and low maturity, as assessed by SSC analysis for granularity (A). The right panels depict the quantification of apoptotic (Annexin V^+/DRAQ7^−) and necrotic (Annexin V^+/DRAQ7^+) cell death in the respective populations (n=3). (B) BMMCs (0.5×10^6 cells) were developed from WT (FIG. 4B) or serglycin^−/− (SG^−/−) mice (data not shown) and were treated with monensin 0-10 μM for 24 h, followed by cell death assessment (Annexin V/DRAQ7 staining). […] To further assess the impact of the secretory granules on monensin-induced cell death, it was evaluated whether the absence of serglycin, a granule-restricted proteoglycan, affects the response to monensin. […]

[5] = system: mouse bone-marrow-derived mast cells (BMMCs); test: Annexin V/DRAQ7 cell death assessment in BMMCs; format: cell-based
Procedure: as §1
To analyze the mechanism by which monensin acts on mast cells, Annexin V/DRAQ7 staining was first adopted to assess the type of cell death induced by monensin, the gating is shown in FIG. 2A. […] Necrotic/late apoptotic (Annexin V^+/DRAQ7^+) cells were also seen, but to a lesser extent (right panel).
BMMCs were treated with 1 μM monensin for 12 and 24 h, followed by Annexin V/DRAQ7 staining to measure cell death. MCs were gated into cells having high and low maturity, as assessed by SSC analysis for granularity (A). The right panels depict the quantification of apoptotic (Annexin V^+/DRAQ7^−) and necrotic (Annexin V^+/DRAQ7^+) cell death in the respective populations (n=3). (B) BMMCs (0.5×10^6 cells) were developed from WT (FIG. 4B) or serglycin^−/− (SG^−/−) mice (data not shown) and were treated with monensin 0-10 μM for 24 h, followed by cell death assessment (Annexin V/DRAQ7 staining). BMMCs (C; 0.5×10^6 cells) or human skin MCs (0.1×10^6 cells; D) were treated with monensin or bafilomycin A 0-10 μM for 30 min, followed by staining with LysoSensor Blue DND-167 (a lysosome probe sensitive to decreased pH) (n=4). BMMCs (0.5×10^6 cells) were treated with either monensin or bafilomycin A (20 nM) alone or in combination (E), followed by measurement of cell death (Annexin V/DRAQ7 staining). (F) BMMCs were treated with monensin or bafilomycin A for 4 and 24 h, followed by assessment of cytosolic pH (n=2). […] To further assess the impact of the secretory granules on monensin-induced cell death, it was evaluated whether the absence of serglycin, a granule-restricted proteoglycan, affects the response to monensin. Both WT and serglycin^−/− BMMCs were sensitive to cell death induced by monensin.

mMCP-6 = test: Translocation of granule protease mMCP-6 into the cytosolic fraction; format: cell-based
[6] = system: Bone marrow-derived mast cells (BMMCs); conditions: mouse; for Viability % (10 μM): 24 h
[7] = system: human skin mast cells (hskinMC); test: Cell death assessment in human skin mast cells; format: cell-based
Procedure: as §1
(§3) Next, the inventors assessed if monensin is cytotoxic for human mast cells by assessing its effect on immature human mast cell lines (LUVA, HMC-1) and on fully mature skin mast cells (hskinMC).

human lymphocytes = test: Human peripheral blood-derived cells, viability: lymphocytes; format: cell-based
Procedure: (§4) Mononuclear cells and granulocytes were purified from heparinized human peripheral blood. Cells were stained with antibodies against CD4 (RPA-T4), CD8 (RPA-T8), CD19 (HIB19) and CD14 (M5E2) or CCR3 (5E8) and CD15 (W6D3) for analysis of mononuclear cells and granulocytes, respectively.
as §1
(§5) To extend these findings into the corresponding human leukocyte populations, the inventors assessed the effects of monensin on eosinophils (B), human blood monocytes (C), lymphocytes (D), and neutrophils (E).

human blood monocytes = test: Human peripheral blood-derived cells, viability: monocytes; format: cell-based
Procedure: as §4, §1, §5

peritoneal lymphocytes = test: Mouse peritoneal lavage cells, viability by flow cytometry: lymphocytes; format: cell-based; conditions: 0-10 μM for 24 h
Procedure: (§6) Mouse peritoneal cells were treated with monensin and stained with labeled antibodies against CD117 (2B8), FcεRI (MAR-1), Siglec-F (E50-2440), CD11b (M1/70), F4/80 (BM8), CD3 (17A2), CD4 (GK1.5), CD8b (eBioH35-17.2) and CD19 (ebuo1D3).
as §1
(§7) To this end, monensin was added to cells recovered by peritoneal lavage of mice, followed by flow cytometry analysis to assess the effects of monensin on the various cell populations of the peritoneum.
(§8) Peritoneal cell populations were recovered by peritoneal lavage of mice. The gating strategy to identify viable cells and to identify macrophages, lymphocytes, MCs and eosinophils within the peritoneal cell population is shown in (A). […] The panels show quantification of viable (Annexin V^−/Via-Probe^−) cells; in the MC (B), lymphocyte (C), macrophage (D) and eosinophil (E) populations (n=3).

human eosinophils = test: Human peripheral blood-derived cells, viability: eosinophils; format: cell-based
Procedure: as §4, §1, §5

peritoneal MCs = test: Mouse peritoneal lavage cells, viability by flow cytometry: MCs; format: cell-based; conditions: 0-10 μM for 24 h
Procedure: as §6, §1, §7, §8

MCs [8] = test: Hexosaminidase release from MCs; format: cell-based
peritoneal macrophages = test: Mouse peritoneal lavage cells, viability by flow cytometry: macrophages; format: cell-based; conditions: 0-10 μM for 24 h
Procedure: as §6, §1, §7, §8

MCs [9] = test: Intracellular calcium in MCs (Fluo-4/AM); format: cell-based
Procedure: as §1

[10] = system: mast cells populating the tracheal tissue; test: Histological analysis of tracheal segments (astra blue); parameters: species or system guinea pig; conditions: monensin-treated tracheal tissue
Procedure: Double staining of control (D) and monensin-treated tracheal tissue (E, F) was performed with astra blue.

[11] = system: human fibroblast cells (HFL-1)
BMMCs [12] = test: Cytosolic pH in BMMCs (BCFL-AM); format: cell-based, mouse; conditions: 4 and 24 h
Procedure: as §1, §2

[13] = system: immature human mast cell line HMC-1; test: Cell death assessment in HMC-1 cells; format: cell-based; conditions: lower potency than for BMMCs and PCMCs
Procedure: as §1, §3

[14] = system: mouse peritoneal cell-derived mast cells (PCMCs); test: Annexin V/DRAQ7 cell death assessment in PCMCs; format: cell-based; conditions: 24 h incubation
Procedure: as §1
To assess whether monensin also induces cell death of fully mature mast cells, mouse peritoneal cell-derived mast cells (PCMCs) were developed and their sensitivity to monensin was assessed. […] In fact, these mature mast cells were even more sensitive to monensin than were the BMMCs, with significant cell death seen at concentrations down to 10 nM (24 h incubation).

MCs [15] = test: Cell death in absence or presence of caspase inhibitor Z-DEVD; format: cell-based; conditions: 1 or 10 μM monensin, with or without Z-DEVD
Procedure: MCs were treated with 1 or 10 μM monensin, either in the absence or presence of a caspase inhibitor: Z-DEVD. Flow cytometry was used to distinguish between viable (Annexin V^−/DRAQ7^−), apoptotic (Annexin V^+/DRAQ7^−) and necrotic (Annexin V^+/DRAQ7^+) cells. […] In line with the latter, the extent of cell death in response to monensin was not affected by the caspase inhibitor, Z-DEVD (FIG. 3).

HEK293 cells = test: Cytotoxicity against HEK293 cells (PrestoBlue); format: cell-based, human; conditions: 0.01-10 μM for 48 h; much less than on mast cells
[16] = system: immature human mast cell line LUVA; test: Cell death assessment in LUVA cells; format: cell-based; conditions: lower potency than for BMMCs and PCMCs
Procedure: as §1, §3

peritoneal eosinophils = test: Mouse peritoneal lavage cells, viability by flow cytometry: eosinophils; format: cell-based; conditions: 0-10 μM for 24 h
Procedure: as §6, §1, §7, §8

human neutrophils = test: Human peripheral blood-derived cells, viability: neutrophils; format: cell-based
Procedure: as §4, §1, §5

human skin MCs = test: Granule acidity, LysoSensor Blue DND-167 staining of human skin MCs; format: cell-based; conditions: 0-10 μM for 30 min
Procedure: as §1, §2

[17] = system: human primary airway epithelial cells (HSAEC); test: Cytotoxicity against human primary airway epithelial cells (PrestoBlue); format: cell-based; conditions: 0.01-10 μM for 48 h; much less than on mast cells
mast cells = conditions: cited from earlier work

CC(=O)OC[C@H]1O[C@@H]([S-])[C@H](OC(C)=O)[C@@H](OC(C)=O)[C@@H]1OC(C)=O.CCP(CC)CC.[Au+] [Auranofin]
Viability % (1 μM) ([1]; 1 μM, BMMCs, Presto Blue): 83% | Viability % (10 μM) ([1]; 10 μM, BMMCs, 24 hours, Presto Blue): 1% | Cytotoxicity at 10 μM on HSFib (HFL-1) cells ([2]; 10 μM, 48 h): exhibited cytotoxicity | Viability % (TB) (10 μM) [3]: 100% | Caspase 3 & 7 activation (Caspase 3 & 7): + | Caspase-3 & 7 activation (Caspase 3 & 7): caspase-3 & 7 positivity

CO/C1=C\C(C)=C\[C@@H](C)[C@@H](O)[C@@H](C)C/C(C)=C/C=C/[C@H](OC)[C@@H]([C@@H](C)[C@@H](O)[C@H](C)[C@@]2(O)C[C@@H](O)[C@H](C)[C@@H](C(C)C)O2)OC1=O [Bafilomycin A]
LysoSensor Blue DND-167 staining / granule acidity, BMMCs (BMMCs [4]): profound reduction | Extent of cell death induced by monensin when combined with bafilomycin A ([5]; bafilomycin A 20 nM in combination with monensin, BMMCs): significant reduction | Monensin-induced translocation of mMCP-6 to the cytosol in cells treated with bafilomycin A (mMCP-6): abrogated

CCN(CC)CCOc1ccc(C(=C(Cl)c2ccccc2)c2ccccc2)cc1 [Clomiphene]
Viability % (1 μM) [6]: 99% | Viability % (10 μM) [6]: 76% | Viability % (TB) (10 μM) [3]: 22% | Caspase 3 & 7 activation (Caspase 3 & 7): − | Caspase-3 & 7 activation (Caspase 3 & 7): absence of a positive signal

CC[C@]1([C@H]2O[C@H]([C@@H]3O[C@](O)(CO)[C@@H](C)C[C@H]3C)C[C@H]2C)CC[C@@H]([C@@]2(C)CC[C@@]3(C[C@@H](O)[C@H](C)[C@H]([C@H](C)[C@H](OC)[C@H](C)C(=O)O)O3)O2)O1 [Monensin, 4-[2-[5-ethyl-5-[5-[6-hydroxy-6-(hydroxymethyl)-3,5-dimethyl-oxan-2-yl]-3-methyl-oxolan-2-yl]oxolan-2-yl]-9-hydroxy-2,8-dimethyl-1,6-dioxaspiro[4.5]dec7-yl]-3-methoxy-2-methyl-pentanoic acid]
Sensitivity of human skin mast cells ([7]; especially after longer incubation time): considerable sensitivity | Type of cell death in human skin mast cells ([7]; sign of necrosis almost negligible): mainly apoptosis | Viability of human lymphocytes (human lymphocytes): no reduction | Viability of human monocytes (human blood monocytes): no reduction | LysoSensor Blue DND-167 staining / granule acidity, BMMCs (BMMCs [4]): marked reduction | Selectivity of cytotoxic effect, mast cells versus HFL-1, HSAEC, HEK-293 [1]: high and selective cytotoxic effect on mast cells | Potency against BMMCs compared with the other drugs ([1]; 0.01-10 μM for 24, 48 or 72 h): markedly more potent than any of the other three drugs | Concentrations showing considerable toxicity to BMMCs (down to) ([1]; 0.01-10 μM for 24, 48 or 72 h, especially after prolonged (72 h) incubation): ≥ 10 nM | Type of cell death in serglycin−/− BMMCs ([5]; 0-10 μM for 24 h, serglycin−/− BMMCs): predominantly Annexin V/DRAQ7 double-positive | Sensitivity of mast cells with high granularity versus low granularity ([5]; 1 μM, 12 and 24 h, SSC gating): markedly more sensitive | Type of cell death in WT BMMCs (Annexin V/DRAQ7) ([5]; WT BMMCs): predominantly Annexin V single positivity; also recorded: predominantly apoptotic cell death | Concentration from which a cytotoxic effect was exhibited, HFL-1 ([2]; 0.01-10 μM for 48 h, much less than on mast cells): ≥ 1000 nM | Response of peritoneal lymphocytes (peritoneal lymphocytes): resistant | Response of human eosinophils (human eosinophils): sensitive | Concentrations at which peritoneal MCs were extensively depleted (down to) (peritoneal MCs): ≥ 10 nM | Viability % (1 μM) [6]: 72% | Viability % (10 μM) [6]: 66% | Release of hexosaminidase (MCs [8]): did not cause | Response of peritoneal macrophages (peritoneal macrophages): resistant | Cytosolic calcium (MCs [9]): did not cause an increase | Proportion of mast cells having a defined nucleus [10]: profound reduction | Cytotoxicity at 10 μM on HSFib (HFL-1) cells [11]: exhibited cytotoxicity | Cytosolic pH (BMMCs [12]): significant drop | Cytotoxicity to HMC-1 cells [13]: cytotoxic | Concentrations with significant cell death in PCMCs (down to) [14]: ≥ 10 nM | Extent of cell death in presence of caspase inhibitor Z-DEVD (MCs [15]): not affected | Concentration from which a cytotoxic effect was exhibited, HEK293 (HEK293 cells): ≥ 1000 nM | Cytotoxicity to LUVA cells [16]: cytotoxic | Concentrations with substantial cell death of peritoneal eosinophils (down to) (peritoneal eosinophils): ≥ 10 nM | Viability % (TB) (10 μM) [3]: 12% | Translocation of mMCP-6 into the cytosolic fraction (mMCP-6): profound translocation | Caspase 3 & 7 activation (Caspase 3 & 7): − | Caspase-3 & 7 activation (Caspase 3 & 7): absence of a positive signal; also recorded: does not cause caspase-3 & 7 activations | Response of human neutrophils (human neutrophils): only marginally affected | LysoSensor Blue DND-167 staining, human skin MCs (human skin MCs): marked reduction | Concentration from which a cytotoxic effect was exhibited, HSAEC [17]: ≥ 1000 nM | Histamine release on longer incubation (mast cells; 5 hr incubation with mast cells): potent secretagogue | Concentrations able to prevent histamine release from mast cells stimulated by secretagogues (mast cells; secretagogues such as calcium ionophore A23187): 0.6 to 150 µg/mL
